Publication PMC4761905, “A Novel Heterocyclic Compound CE-104 Enhances Spatial Working Memory in the Radial Arm Maze in Rats and Modulates the Dopaminergic System” (Frontiers in Behavioral Neuroscience, 2016)

Columns and labels:
[1] = target: T1, dopamine transporter (DAT) (Homo sapiens, UniProt Q01959); test: [3H]dopamine uptake inhibition in HEK293 cells stably expressing human DAT; type: cell-based
T1 construct: gene SLC6A3

[2] = target: T2, norepinephrine transporter (NET) (Homo sapiens, UniProt P23975); test: [3H]MPP+ uptake inhibition in HEK293 cells stably expressing human NET; type: cell-based
T2 construct: gene SLC6A2
T2 sequence (P23975 whole entry): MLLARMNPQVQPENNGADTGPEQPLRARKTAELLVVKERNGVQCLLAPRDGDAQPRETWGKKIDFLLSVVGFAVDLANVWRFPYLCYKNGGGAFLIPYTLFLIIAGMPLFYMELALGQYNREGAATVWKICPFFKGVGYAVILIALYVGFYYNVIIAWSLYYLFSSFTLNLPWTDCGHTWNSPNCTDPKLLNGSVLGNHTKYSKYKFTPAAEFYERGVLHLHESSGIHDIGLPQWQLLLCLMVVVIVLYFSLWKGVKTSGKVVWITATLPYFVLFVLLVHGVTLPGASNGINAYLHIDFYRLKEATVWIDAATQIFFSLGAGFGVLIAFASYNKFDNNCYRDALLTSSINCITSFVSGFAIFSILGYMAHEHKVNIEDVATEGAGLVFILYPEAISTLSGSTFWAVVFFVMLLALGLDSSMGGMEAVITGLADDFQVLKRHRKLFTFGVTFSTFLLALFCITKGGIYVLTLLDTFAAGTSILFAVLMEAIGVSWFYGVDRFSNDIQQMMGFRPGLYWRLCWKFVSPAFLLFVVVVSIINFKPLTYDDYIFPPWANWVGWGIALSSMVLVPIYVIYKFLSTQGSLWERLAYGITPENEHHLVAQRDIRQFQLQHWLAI

T1 sequence (Q01959 whole entry): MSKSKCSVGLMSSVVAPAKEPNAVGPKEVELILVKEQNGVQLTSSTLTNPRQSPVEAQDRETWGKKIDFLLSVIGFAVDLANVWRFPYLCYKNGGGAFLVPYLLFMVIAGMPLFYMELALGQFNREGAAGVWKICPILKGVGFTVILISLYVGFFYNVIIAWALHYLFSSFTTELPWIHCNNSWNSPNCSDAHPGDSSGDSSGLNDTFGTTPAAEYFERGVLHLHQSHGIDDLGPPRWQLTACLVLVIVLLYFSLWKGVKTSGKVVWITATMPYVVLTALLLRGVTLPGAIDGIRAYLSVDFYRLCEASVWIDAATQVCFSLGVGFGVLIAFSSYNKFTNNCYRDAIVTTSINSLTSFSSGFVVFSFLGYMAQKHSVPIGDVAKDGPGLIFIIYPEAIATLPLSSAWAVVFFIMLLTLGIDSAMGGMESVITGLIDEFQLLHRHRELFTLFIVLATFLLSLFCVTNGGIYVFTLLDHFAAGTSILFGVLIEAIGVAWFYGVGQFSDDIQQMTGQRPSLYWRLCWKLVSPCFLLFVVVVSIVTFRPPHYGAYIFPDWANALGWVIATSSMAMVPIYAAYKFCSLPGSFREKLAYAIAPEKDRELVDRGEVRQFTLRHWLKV

## Cc1csc(C[S+]([O-])C(c2ccccc2)c2ccccc2)n1 (racemic) [CE-104, 2-(benzhydrylsulfinylmethyl)-4-methylthiazole]
[1]
  IC50: 27.9 µM
[2]
  IC50: 160 µM
